Data from patent publication US20130005678A1, “Methods and Compositions for Treating or Ameliorating Cancer Using Gemcitabine-5'-Elaidate” (CLAVIS PHARMA ASA, priority 2010, published 2013).

How the values were obtained:
[1] = system: human colon cancer Co5776; experiment: Antitumor activity in human colon xenograft Co5776; type: in vivo; settings: NCR female mice; intraperitoneally every third day five times; gemcitabine 120 mg/kg, gemcitabine-5′-elaidic acid ester 40 mg/kg
Method: (§1) Fragments of human colon cancers Co5776 and Co6044 are implanted subcutaneously in NCR female mice (7-8 mice/group). Gemcitabine (120 mg/kg) and gemcitabine-5′-elaidic acid ester (40 mg/kg) are administered intraperitoneally, every third day for five times.
NCr female mice implanted subcutaneously with human colon carcinoma fragments, Co5776, are treated intraperitoneally. Two different schedules of gemcitabine-5′-elaidic acid ester are administered, once weekly times 2 (Days 11 and 18), and every third day times 5 (Days 11, 14, 17, 20, and 23). Antitumor activity of gemcitabine-5′-elaidic acid ester is similar for 150 mg/kg once weekly, administered twice or 40 mg/kg every third day administered five times.

[2] = system: human colon cancer Co6044; experiment: Antitumor activity in human colon xenograft Co6044 (intraperitoneal); type: in vivo; settings: NCR female mice; intraperitoneally every third day five times; gemcitabine 120 mg/kg, gemcitabine-5′-elaidic acid ester 40 mg/kg
Method: as §1

[3] = system: Co-26 murine colon cancer cells; experiment: Antitumor effect in Co-26 liver metastasis model; type: in vivo; settings: single dose
Method: Antitumor effect of single dose of gemcitabine-5′-elaidic acid ester or gemcitabine is tested in Balb/C female mice injected with Co-26 murine colon cancer cells in the spleen (a liver metastasis model). […] The activity of gemcitabine is similar.

[4] = system: CEM cells; experiment: Intracellular dFdCTP level in CEM cells with or without dipyridamole (HPLC); type: cell-based, human; settings: 10 μM
Method: hENT1 can inhibited in vitro by various agents including dipyridamole, NBMPR, and NBI. In order to test whether gemcitabine-5′-elaidate entry into the cells is independent of a nucleoside transporter such as hENT1, dipyridamole is used to block hENT1. The intracellular level of dFdCTP is determined in CEM cells after 60 minutes exposure to either dFdC or gemcitabine-5′-elaidate, with or without the addition of dipyridamole (DP). The compounds are administered at 10 μM, and the triphosphates are determined using HPLC. Deamination is blocked using tetrahydrouridine.

[5] = system: CCRF-CEM human leukemia cell line; experiment: Triphosphate accumulation and retention in CCRF-CEM cells; type: cell-based
Source text: Drugs: Gemcitabine-5′-elaidate was provided by Clavis Pharma (Oslo, Norway), tetra hydro uridine (THU) was from Calbiochem (Merck, Darmstadt, Germany), dipyridamole and ara-C were from Sigma-Aldrich (St. Louis, Mo., USA) and dFdC was from Eli-Lilly (Indianapolis, Ind., USA). The radioactively labeled drugs were obtained from Moravek (Brea, Calif., USA); the drugs were labeled with tritium on the 5-C site of the base. A mix of radioactive and non-radioactive compounds was made for exposure of cells; dFdC and CP-4126 were used at a final concentration of 8.9 μM and a specific activity of 586 and 391 mCi/mmol, respectively.
Cell lines: For the experiments the CCRF-CEM human leukemia cell line and its dCK negative variant (CEM/dCK−) were used. The cell lines were cultured in RPMI medium (BioWhittaker, Verviers, Belgium) supplemented with 10% fetal calf serum (PAA laboratories, Pasching, Austria) and HEPES buffer (BioWhittaker). Of the nucleoside influx transporters, the CEM cell line only expresses the equilibrative nucleoside transporter (hENT) and not the concentrative nucleoside transporter (hCNT). Belt et al. Adv. Enzyme Regul., 1993, 33, 235-52. Dipyridamole (DP) was used to inhibit the influx of the drugs by hENT. In order to get a clean picture, THU was also added to inhibit deamination of ara-C and dFdC.
Triphosphate accumulation: Cells were treated with 1 and 10 μM of dFdC, while for the lipophilic analogs 10 and 100 μM was used. The cells were incubated for 60 minutes and retention of the triphosphates was investigated after 60 and 120 minutes incubation in drug-free medium. Dipyridamole was added to inhibit drug influx by the hENT transporter. After incubation the cell pellet was resuspended in ice-cold PBS and incubated for 20 minutes at 4° C. with 40% trichloroacetic acid. After centrifugation (10,000 g, 10 min, 4° C.) the supernatant was treated with a 2-fold excess of trioctylamine/1,1,2-trichlorotrifluorethane (1:4) and spun down (10,000 g, 1 min) and the aqueous phase was stored at −20° C. until analysis by HPLC on a Whatman Partisphere SAX column (GE healthcare, Chalfont St. Giles, UK) using gradient (dFdC-TP) elution as described earlier. Noordhuis et al., Leuk. Res., 1996, 20, 127-34; Ruiz van Haperen, et al., Biochem. Pharmacol., 1994, 48, 1327-39.

[6] = system: xenograft mouse models; experiment: Correlation of hENT1 mRNA levels and sensitivity to gemcitabine in xenograft mouse models (FIG. 6); type: in vivo; settings: higher expression level of hENT1 mRNA
Source text: FIG. 6 depicts the correlation of hENT1 mRNA levels and sensitivity to gemcitabine in xenograft mouse models. There are many nucleoside transporters and each may move nucleoside analog drugs across the membrane with unique kinetics. A cancer cell which has lower levels nucleoside transporters will be less efficient at transporting these drugs into the cells, reducing the efficacy of the drug. For example a tumor that has low levels of hENT1 is less sensitive to treatment with gemcitabine. FIG. 6 depicts the correlation of hENT1 mRNA levels and sensitivity to gemcitabine in xenograft mouse models. In some aspects low expression of hENT1 on pancreatic tumor cells linked to poor survival after gemcitabine therapy. In addition, hENT1 deficient tumor cells are resistant to pyrimidine nucleoside analogs in vitro. For example, hENT1 mRNA levels are co-related to the sensitivity to gemcitabine in xenograft mouse models.

[7] = system: pancreatic cancer; experiment: Survival of pancreatic cancer patients receiving gemcitabine monotherapy (FIG. 8); type: in vivo, human; settings: hypothetical plot
Method: Patients suffering from pancreatic cancer are administered gemcitabine monotherapy. Post mortem studies of the patients' tumors determine the levels of hENT1 expression in the tumors. FIG. 8 depicts a Kaplan-Meier plot of survival for patients receiving the gemcitabine monotherapy Patients with high hENT1 expression (dotted line) outperform those with areas of hENT1-low tumor.

[8] = system: Murine Lewis Lung cells; settings: BDF1 mice; intravenously on Day 1
Method: Murine Lewis Lung cells are intravenously injected to BDF1 mice. Mean survival as well as body weight change and tumor free survivors on Day 72 are endpoints of the study. […] Treatment is administered once daily intraperitoneally on Days 1-4 and 7-11.

SMILES	antitumor effect [1]	antitumor effect [2]	activity compared with gemcitabine [3]	intracellular triphosphate (dFdCTP) level with DP ([4]; 60 minutes exposure, with dipyridamole, tetrahydrouridine present)	level of triphosphate over time in the absence of DP ([4]; after exposure, without dipyridamole)	retention of dFdC-TP concentration after washing away the drugs ([5]; 60 and 120 minutes in drug-free medium)	triphosphates formed after 60 minutes incubation ([5]; dFdC 1 and 10 μM, lipophilic analog 10 and 100 μM)	effect of dipyridamole on dFdC-TP accumulation ([5]; hENT inhibited by dipyridamole)	response in relation to hENT1 mRNA expression level [6]	survival (Kaplan-Meier), high hENT1 vs hENT1-low tumor [7]	antitumor activity [8]	toxicity [8]
Nc1ccn([C@@H]2O[C@H](CO)[C@@H](O)C2(F)F)c(=O)n1 [gemcitabine, 2′2′-difluorodeoxycytidine]	Significant antitumor effect	Significant antitumor effect	similar	below level of detection	decreases with time	decreased after washing away the drugs	more triphosphates were formed	abolishing accumulation of dFdC-TP	better response	outperform		
O=P1(N(CCCl)CCCl)NCCCO1 (stereo not drawn) [CTX, Cyclophosphamide]											highly active	non-toxic
